Experimental data as given in PubChem BioAssay AID248 (DTP/NCI, 2004).
“And” between values parts separate entries of the source, which are not always exact repeats. Identical values can stand only once. Inconclusive results and toxic doses are left out. Rule as the data show it: active = T/C of 150% or more; inactive = T/C below 125%.

Test system: L1210 leukemia ip in BDF1 mice, survival T/C
Test: NCI In Vivo Anticancer Drug Screen. Data for tumor model L1210 Leukemia (intraperitoneal) in B6D2F1 (BDF1) mice
Conditions: endpoint: mean survival time, higher = longer survival
Procedure, shortened: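 Survival endpoint. Drug-treated group vs vehicle group, expressed as T divided by C. Tumor passaged by transplantation.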

[1] = dose: 100.0 mg/kg/injection, schedule: Q04DX003 (ip), vehicle: Klucel (hydroxypropylcellulose) (HPC)
[2] = dose: 100.0 mg/kg/injection, schedule: Q01DX009 (ip), vehicle: saline with Tween-80
[3] = dose: 200.0 mg/kg/injection, schedule: Q01DX009 (ip), vehicle: saline with Tween-80
[4] = dose: 100.0 mg/kg/injection, schedule: Q01DX001 (ip), vehicle: carboxymethylcellulose (CMC)
[5] = dose: 100.0 mg/kg/injection, schedule: Q01DX001 (ip), vehicle: saline
[6] = dose: 200.0 mg/kg/injection, schedule: Q01DX001 (ip), vehicle: carboxymethylcellulose (CMC)
[7] = dose: 200.0 mg/kg/injection, schedule: Q01DX001 (ip), vehicle: saline
[8] = dose: 400.0 mg/kg/injection, schedule: Q01DX001 (ip), vehicle: carboxymethylcellulose (CMC)
[9] = dose: 400.0 mg/kg/injection, schedule: Q01DX001 (ip), vehicle: saline
[10] = dose: 100.0 mg/kg/injection, schedule: Q04DX002 (ip), vehicle: saline with Tween-80
[11] = dose: 200.0 mg/kg/injection, schedule: Q04DX002 (ip), vehicle: saline with Tween-80
[12] = dose: 100.0 mg/kg/injection, schedule: Q01DX009 (ip), vehicle: Klucel (hydroxypropylcellulose) (HPC)
[13] = dose: 400.0 mg/kg/injection, schedule: Q01DX009 (ip), vehicle: saline with Tween-80

Measured: T/C

COc1cc(CCN)ccc1OCc1ccccc1
inactive: dose: 25.0 mg/kg/injection, schedule: Q04DX003 (ip), vehicle: Klucel (hydroxypropylcellulose) (HPC) 97 % of control | dose: 50.0 mg/kg/injection, schedule: Q04DX003 (ip), vehicle: Klucel (hydroxypropylcellulose) (HPC) 101 % of control | dose: 100.0 mg/kg/injection, schedule: Q01DX001 (ip), vehicle: Klucel (hydroxypropylcellulose) (HPC) 96 % of control | [1] 104 % of control and 105 % of control | dose: 200.0 mg/kg/injection, schedule: Q01DX001 (ip), vehicle: Klucel (hydroxypropylcellulose) (HPC) 94 % of control

COc1ccc(C)cc1NC(=O)OCCOc1ccc([N+](=O)[O-])cc1
inactive: dose: 50.0 mg/kg/injection, schedule: Q01DX009 (ip), vehicle: saline with Tween-80 93 % of control | [2] 97 % of control | [3] 93 % of control

Cc1n[n+]([O-])c(C)cc1[N+](=O)[O-]
inactive: dose: 100.0 mg/kg/injection, schedule: Q04DX002 (ip), vehicle: Klucel (hydroxypropylcellulose) (HPC) 112 % of control | dose: 200.0 mg/kg/injection, schedule: Q04DX002 (ip), vehicle: Klucel (hydroxypropylcellulose) (HPC) 101 % of control

Cc1ccc(S(=O)(=O)N(CCCc2c(C)nc(N)[nH]c2=O)Cc2ccc([N+](=O)[O-])cc2)cc1
inactive: dose: 75.0 mg/kg/injection, schedule: Q01DX001 (ip), vehicle: Klucel (hydroxypropylcellulose) (HPC) 102 % of control | dose: 150.0 mg/kg/injection, schedule: Q01DX001 (ip), vehicle: Klucel (hydroxypropylcellulose) (HPC) 97 % of control | dose: 300.0 mg/kg/injection, schedule: Q01DX001 (ip), vehicle: Klucel (hydroxypropylcellulose) (HPC) 103 % of control

CCOC(=O)n1c(=O)[nH]c2ccccc21
inactive: dose: 87.5 mg/kg/injection, schedule: Q04DX003 (ip), vehicle: carboxymethylcellulose (CMC) 97 % of control | dose: 175.0 mg/kg/injection, schedule: Q04DX003 (ip), vehicle: carboxymethylcellulose (CMC) 91 % of control | dose: 350.0 mg/kg/injection, schedule: Q04DX003 (ip), vehicle: carboxymethylcellulose (CMC) 101 % of control

Cc1c(C)c2ccccc2[nH]c1=O
inactive: [4] 88 % of control | [5] 100 % of control | [6] 88 % of control | [7] 95 % of control | [8] 96 % of control | [9] 95 % of control

CCOC(=O)CCCNc1ccccc1C(=O)OC
inactive: [4] 110 % of control | [6] 107 % of control | [8] 107 % of control

CCN(CC)c1ccc2nc3ccc(N(CC)CC)cc3[n+](-c3ccccc3)c2c1
inactive: dose: 3.0 mg/kg/injection, schedule: Q01DX009 (ip), vehicle: saline 111 % of control | dose: 6.0 mg/kg/injection, schedule: Q01DX009 (ip), vehicle: saline 115 % of control

Cn1nc(C#N)c(C#N)c1NC(=O)C(C)(C)C
inactive: dose: 50.0 mg/kg/injection, schedule: Q04DX002 (ip), vehicle: saline with Tween-80 92 % of control | [10] 103 % of control | [11] 106 % of control

C=CS(=O)(=O)c1ccccc1
inactive: dose: 18.0 mg/kg/injection, schedule: Q04DX003 (ip), vehicle: saline with Tween-80 102 % of control | dose: 25.0 mg/kg/injection, schedule: Q01DX009 (ip), vehicle: Klucel (hydroxypropylcellulose) (HPC) 91 % of control | dose: 36.0 mg/kg/injection, schedule: Q04DX003 (ip), vehicle: saline with Tween-80 104 % of control | dose: 50.0 mg/kg/injection, schedule: Q01DX009 (ip), vehicle: Klucel (hydroxypropylcellulose) (HPC) 91 % of control | dose: 72.0 mg/kg/injection, schedule: Q04DX003 (ip), vehicle: saline with Tween-80 98 % of control | [12] 94 % of control | dose: 100.0 mg/kg/injection, schedule: Q04DX003 (ip), vehicle: saline with Tween-80 97 % of control | dose: 200.0 mg/kg/injection, schedule: Q04DX003 (ip), vehicle: saline with Tween-80 92 % of control | dose: 400.0 mg/kg/injection, schedule: Q04DX003 (ip), vehicle: saline with Tween-80 95 % of control

CC1CCCC(C)N1C(=O)Nc1cccc(C(F)(F)F)c1 (centres undefined)
inactive: dose: 100.0 mg/kg/injection, schedule: Q01DX009 (ip), vehicle: gum acacia 108 % of control | dose: 200.0 mg/kg/injection, schedule: Q01DX009 (ip), vehicle: gum acacia 103 % of control

CC1(C)CCC(C)(C)c2c1ccc(O)c2Sc1c(O)ccc2c1C(C)(C)CCC2(C)C
inactive: [5] 87 % of control

COc1cc2cnc3c4cc(OC)c(OC)cc4ccc3c2cc1OC
inactive: dose: 80.0 mg/kg/injection, schedule: Q01DX009 (ip), vehicle: saline 88 % of control | dose: 120.0 mg/kg/injection, schedule: Q01DX009 (ip), vehicle: saline 90 % of control | dose: 240.0 mg/kg/injection, schedule: Q01DX009 (ip), vehicle: saline 91 % of control

C[N+]12C(=O)CC3OCC=C4C[N+]5(C)CCC6(c7ccccc71)C2C3C4CC65O (centres undefined)
inactive: dose: 9.5 mg/kg/injection, schedule: Q01DX001 (ip), vehicle: other 92 % of control | dose: 19.0 mg/kg/injection, schedule: Q01DX001 (ip), vehicle: other 101 % of control

CCCCc1ccc(N=Cc2ccc(C=Nc3ccc(CCCC)cc3)cc2)cc1
inactive: [2] 92 % of control | [3] 97 % of control | [13] 94 % of control

CCCCCCCCCCCCCCCCOC(=O)Cl
inactive: dose: 100.0 mg/kg/injection, schedule: Q01DX001 (ip), vehicle: other 98 % of control | dose: 200.0 mg/kg/injection, schedule: Q01DX001 (ip), vehicle: other 90 % of control | dose: 400.0 mg/kg/injection, schedule: Q01DX001 (ip), vehicle: other 106 % of control

CCOC(=O)C(C)(C)C(O)C(C)C (centres undefined)
inactive: [2] 106 % of control | [3] 103 % of control | [13] 93 % of control

CCOC(=O)CN1CCN2C(=O)N(CC)CCC2C1 (centres undefined)
inactive: dose: 100.0 mg/kg/injection, schedule: Q04DX003 (ip), vehicle: saline 95 % of control | dose: 200.0 mg/kg/injection, schedule: Q04DX003 (ip), vehicle: saline 90 % of control | dose: 400.0 mg/kg/injection, schedule: Q04DX003 (ip), vehicle: saline 101 % of control

CCCC[N+](C)(CCCC)CCCC
inactive: dose: 75.0 mg/kg/injection, schedule: Q01DX001 (ip), vehicle: saline 101 % of control

COC(=O)/C=C/N1C(=O)c2ccccc2C1=O
inactive: [12] 96 % of control | [1] 102 % of control | dose: 200.0 mg/kg/injection, schedule: Q01DX009 (ip), vehicle: Klucel (hydroxypropylcellulose) (HPC) 98 % of control | dose: 200.0 mg/kg/injection, schedule: Q04DX003 (ip), vehicle: Klucel (hydroxypropylcellulose) (HPC) 92 % of control | dose: 400.0 mg/kg/injection, schedule: Q01DX009 (ip), vehicle: Klucel (hydroxypropylcellulose) (HPC) 98 % of control | dose: 400.0 mg/kg/injection, schedule: Q04DX003 (ip), vehicle: Klucel (hydroxypropylcellulose) (HPC) 96 % of control

CCCCCCc1cc(N=Nc2ccc(S(=O)(=O)Nc3nnc(C)s3)cc2)c(O)cc1O
inactive: [4] 98 % of control | [6] 95 % of control

CCCN(C(=O)c1cccc([N+](=O)[O-])c1)C(c1ccco1)P(=O)(c1ccccc1)c1ccccc1 (centres undefined)
inactive: dose: 50.0 mg/kg/injection, schedule: Q01DX001 (ip), vehicle: saline with Tween-80 101 % of control | dose: 100.0 mg/kg/injection, schedule: Q01DX001 (ip), vehicle: saline with Tween-80 101 % of control | [2] 100 % of control and 90 % of control | [10] 98 % of control | dose: 200.0 mg/kg/injection, schedule: Q01DX001 (ip), vehicle: saline with Tween-80 106 % of control | [3] 87 % of control | [11] 102 % of control | dose: 400.0 mg/kg/injection, schedule: Q04DX002 (ip), vehicle: saline with Tween-80 93 % of control and 88 % of control

CCCCC(CC)CNCC(CC)CCCC (centres undefined)
inactive: dose: 25.0 mg/kg/injection, schedule: Q04DX003 (ip), vehicle: carboxymethylcellulose (CMC) 100 % of control | dose: 50.0 mg/kg/injection, schedule: Q04DX003 (ip), vehicle: carboxymethylcellulose (CMC) 102 % of control | dose: 100.0 mg/kg/injection, schedule: Q04DX003 (ip), vehicle: carboxymethylcellulose (CMC) 97 % of control | dose: 100.0 mg/kg/injection, schedule: Q04DX013 (ip), vehicle: carboxymethylcellulose (CMC) 96 % of control

CC(C1CCCCC1)C(C#N)C(=O)NC(N)=O (centres undefined)
inactive: dose: 50.0 mg/kg/injection, schedule: Q01DX001 (ip), vehicle: saline 97 % of control | [5] 92 % of control | [7] 95 % of control | [9] 90 % of control
